Source: patent US20240261272A1, “LPA1 ANTAGONISTS FOR TREATING INTERSTITIAL LUNG DISEASE” (Bristol-Myers Squibb Company, priority 2022, published 2024)

Tests used:
[1] = Phase 1 Part A single ascending dose (SAD) study in healthy participants: safety, blood pressure; type: in vivo, human; design: Mean DBP: unit not given here
Procedure: The study was performed in 3 parts in 112 healthy male and female participants, including 24 Japanese participants. Female participants were to be not of childbearing potential. The present study was designed to evaluate the safety and tolerability, PK, and exploratory PD of an oral suspension of Compound A. Parts A and B (Cohort B1 only) enrolled healthy participants and was conducted at a site in The Netherlands and Part B (Cohort B2 to B5) enrolled healthy non-Japanese participants and was conducted at a site in the United Kingdom (UK). Part C enrolled healthy Japanese participants and was conducted at the same site in the UK.
Part A was an SAD study in a planned number of 6 sequential dose escalation cohorts (3, 10, 30, 100, 150, or 250 mg) of 8 healthy participants (6 active+2 placebo) each, under fasted conditions. Eligible participants in Part A (excluding those in Cohort A7 [food effect (FE)/pH cohort]) received a single administration of study drug (Compound A or placebo) under fasted conditions. In Cohort A1 to Cohort A6, sentinel dosing was employed (1 active+1 placebo, followed after 48 hours by the remaining participants of the cohort [5 active+1 placebo]). […] In addition to the 6 ascending dose cohorts, a cohort of 6 healthy participants (Cohort A7; 6 active, 100 mg Compound A) was included to assess the effect of food and pH on the bioavailability of Compound A in a 3-period, open-label, fixed-sequence, crossover design (FE/pH cohort).
Physical examinations, vital sign measurements (including orthostasis testing in Cohort A6, Cohort B3 to B5, and C1 to C3 at selected time points), 12-lead electrocardiogram (ECG), and clinical laboratory evaluations were performed at selected times throughout the study. In addition, Holter monitoring was performed for the first 24 hours post dose on Day 1 in Part A (not in FE/pH cohort), and also for the first 24 hours post dose on Day 1 and Day 14 in Parts B and C. Participants were closely monitored for adverse events (AEs). Blood samples were collected for up to 14 days (follow-up visit) after (last) study drug administration for PK analysis. In addition, blood and urine were collected for exploratory biomarker assessments and for biobanking of samples for potential analyses. Urine was collected for potential PK analysis for up to 96 hours after a single dose of Compound A or placebo was administered in the SAD part, and for up to 24 hours after the first (morning) dose of study drug on Day 1 and for up to 24 hours after the last (morning) dose of study drug on Day 14 in the MAD parts.

[2] = Phase 2 study, PPF cohort: safety, adverse events, prespecified blood pressure reduction criteria, dose reductions; type: in vivo, human; details: for Asymptomatic blood pressure reduction, patients (%) / Asymptomatic blood pressure reduction, patients, no. / Symptomatic blood pressure reduction, patients (%) / Symptomatic blood pressure reduction, patients, no.: prespecified criteria
Procedure: A total of 123 participants with PPF were randomized. Participants (age ≥21 years) were randomized (1:1:1) to receive 30 mg or 60 mg Compound A or PBO twice daily for 26 weeks. […] Immunosuppressive medications (mycophenolate mofetil, mycophenolic acid, azathioprine and/or tacrolimus) were permitted only if dosing is stable for ≥6 months prior to screening. If receiving antifibrotic agents pirfenidone or nintedanib, patients had to receive a stable dosage for ≥3 months prior to screening and during the screening period; if not receiving pirfenidone or nintedanib, patients had to be naive to both drugs or not have received either 4 weeks prior to Day 1. A total of 47 (38.2%) subjects were receiving antifibrotic treatment (with or without immunosuppression therapy). Of those subjects, 34 were being treated with nintedanib and 13 with pirfenidone. Participants were stratified by usual interstitial pneumonia (UIP) pattern (presence versus absence) and background therapy (antifibrotics +/−ILD-targeted immunosuppression versus ILD-targeted immunosuppression alone versus none).UIP pattern was present in 52% of subjects and unclassifiable ILD was he most common disease categorization.
Patient is experiencing any of the following, confirmed by retest within 15 minutes: • Seated systolic blood pressure <85 mmHg • Seated diastolic blood pressure <55 mmHg • Orthostatic hypotension
Patient is experiencing symptoms that, in the investigator's opinion, could be associated with a reduction in blood pressure and is also experiencing at least one of the following, confirmed by retest within 15 minutes: • Seated systolic blood pressure <100 mmHg or seated diastolic blood pressure <60 mmHg • Decrease of seated systolic blood pressure of ≥20 mmHg from the previous visit or decrease of seated diastolic blood pressure of ≥10 mmHg from the previous visit • Orthostatic hypotension • Orthostatic tachycardia

In the case of `CCCN(C)C(=O)OCc1c(-c2ccc(O[C@H]3CCC[C@H](C(=O)O)C3)c(C)n2)nnn1C` [Compound A, (1S,3S)-3-((2-methyl-6-(1-methyl-5-(((methyl(propyl)carbamoyl)-oxy)methyl)-1H-1,2,3-triazol-4-yl)pyridin-3-yl)oxy)cyclohexane-1-carboxylic acid], the “Mean DBP” value ([1]; 100 mg Fasted + Famotidine, D 1 2 h) is reported as 67.2, the “Mean DBP” value ([1]; 100 mg Fasted + Famotidine, D 1 4 h) is reported as 65.3 and the “Mean DBP” value ([1]; 100 mg Fasted + Famotidine, D 1 8 h) is reported as 63.2. The “Mean DBP” value ([1]; 100 mg Fasted + Famotidine, D 2 24 h) was 71.7, the “Mean DBP” value ([1]; 100 mg Fasted, D 1 2 h) was 67.2 and the “Mean DBP” value ([1]; 100 mg Fasted, D 1 4 h) was 64.2. The “Mean DBP” value ([1]; 100 mg Fasted, D 1 8 h) was 63.0, the “Mean DBP” value ([1]; 100 mg Fasted, D 2 24 h) was 69.3 and the “Mean DBP” value ([1]; 100 mg Fed, D 1 2 h) was 57.2. For the same compound, the “Mean DBP” value ([1]; 100 mg Fed, D 1 4 h) was 58.2, the “Mean DBP” value ([1]; 100 mg Fed, D 1 8 h) was 58.8 and the “Mean DBP” value ([1]; 100 mg Fed, D 2 24 h) was 69.3. The “Mean DBP” value ([1]; SAD 3 mg, D 1 2 h) was 68.3, the “Mean DBP” value ([1]; SAD 3 mg, D 1 4 h) was 69.5 and the “Mean DBP” value ([1]; SAD 3 mg, D 1 8 h) was 68.0. The “Mean DBP” value ([1]; SAD 3 mg, D 2 24 h) was 68.7, the “Mean DBP” value ([1]; SAD 10 mg, D 1 2 h) was 67.7 and the “Mean DBP” value ([1]; SAD 10 mg, D 1 4 h) was 68.7. For the same compound, the “Mean DBP” value ([1]; SAD 10 mg, D 1 8 h) was 63.0, the “Mean DBP” value ([1]; SAD 10 mg, D 2 24 h) was 71.7 and the “Mean DBP” value ([1]; SAD 30 mg, D 1 2 h) was 66.2. The “Mean DBP” value ([1]; SAD 30 mg, D 1 4 h) was 65.2, the “Mean DBP” value ([1]; SAD 30 mg, D 1 8 h) was 65.2 and the “Mean DBP” value ([1]; SAD 30 mg, D 2 24 h) was 71.0. For the same compound, the “Mean DBP” value ([1]; SAD 100 mg, D 1 2 h) was 59.0, the “Mean DBP” value ([1]; SAD 100 mg, D 1 4 h) was 58.7 and the “Mean DBP” value ([1]; SAD 100 mg, D 1 8 h) was 56.3. The “Mean DBP” value ([1]; SAD 100 mg, D 2 24 h) was 66.0, the “Mean DBP” value ([1]; SAD 150 mg, D 1 2 h) was 58.2 and the “Mean DBP” value ([1]; SAD 150 mg, D 1 4 h) was 56.0. For the same compound, the “Mean DBP” value ([1]; SAD 150 mg, D 1 8 h) was 57.8, the “Mean DBP” value ([1]; SAD 150 mg, D 2 24 h) was 66.2 and the “dose-limiting events (in words)” value ([1]; SAD Cohort A6, 250 mg, sentinel participants) was “dose-limiting events observed in a sentinel participant”. For the same compound, the “effect on SBP and DBP (in words)” value ([1]; SAD cohorts) was “decreased SBP and DBP dose dependently, reversibly, and mostly asymptomatically”, the “safety and tolerability (in words)” value ([1]; single and multiple dose oral administration to healthy participants) was “generally safe and well tolerated” and the “day-1 blood pressure reduction (in words)” value [2] was “dose dependent day-1 blood pressure reduction”. The “hepatobiliary toxicity (in words)” value [2] was “No hepatobiliary toxicity”, the “tolerability and safety findings (in words)” value [2] was “well-tolerated, demonstrated no unexpected safety findings” and the “Dose dependent low BP thresholds ("events")” value ([2]; 30 mg) was 30%. The “≥1 TEAE related to study drug, no.” value ([2]; 30 mg (n = 40)) was 7, the “≥1 TEAE, no.” value ([2]; 30 mg (n = 40)) was 33 and the “≥1 TESAE, no.” value ([2]; 30 mg (n = 40)) was 4. The “≥1 TEAE related to study drug, no.” value ([2]; 60 mg (n = 42)) was 11, the “≥1 TEAE, no.” value ([2]; 60 mg (n = 42)) was 28 and the “≥1 TESAE, no.” value ([2]; 60 mg (n = 42)) was 5. The “Orthostatic hypotension (asymptomatic and symptomatic), comparison of groups (in words)” value ([2]; 60 mg group) was “higher in the 60 mg group than for other groups”, the “Dose reductions, patients (%)” value ([2]; 30-mg Compound A (n = 40)) was “(15.0) %” and the “Dose reductions, patients, no.” value ([2]; 30-mg Compound A (n = 40)) was 6. The “Orthostatic hypotension (under asymptomatic blood pressure reduction), patients (%)” value ([2]; 30-mg Compound A (n = 40)) was “(15.0) %”, the “Orthostatic hypotension (under asymptomatic blood pressure reduction), patients, no.” value ([2]; 30-mg Compound A (n = 40)) was 6 and the “Orthostatic hypotension (under symptomatic blood pressure reduction), patients (%)” value ([2]; 30-mg Compound A (n = 40)) was “(2.5) %”. For the same compound, the “Orthostatic hypotension (under symptomatic blood pressure reduction), patients, no.” value ([2]; 30-mg Compound A (n = 40)) was 1, the “Asymptomatic blood pressure reduction, patients (%)” value ([2]; 30-mg Compound A (n = 40)) was “(22.5) %” and the “Asymptomatic blood pressure reduction, patients, no.” value ([2]; 30-mg Compound A (n = 40)) was 9. The “Symptomatic blood pressure reduction, patients (%)” value ([2]; 30-mg Compound A (n = 40)) was “(5.0) %”, the “Symptomatic blood pressure reduction, patients, no.” value ([2]; 30-mg Compound A (n = 40)) was 2 and the “Dose reductions, patients (%)” value ([2]; 60-mg Compound A (n = 42)) was “(11.9) %”. For the same compound, the “Dose reductions, patients, no.” value ([2]; 60-mg Compound A (n = 42)) was 5, the “Orthostatic hypotension (under asymptomatic blood pressure reduction), patients (%)” value ([2]; 60-mg Compound A (n = 42)) was “(26.2) %” and the “Orthostatic hypotension (under asymptomatic blood pressure reduction), patients, no.” value ([2]; 60-mg Compound A (n = 42)) was 11. For the same compound, the “Orthostatic hypotension (under symptomatic blood pressure reduction), patients (%)” value ([2]; 60-mg Compound A (n = 42)) was “(9.5) %”, the “Orthostatic hypotension (under symptomatic blood pressure reduction), patients, no.” value ([2]; 60-mg Compound A (n = 42)) was 4 and the “Asymptomatic blood pressure reduction, patients (%)” value ([2]; 60-mg Compound A (n = 42)) was “(31.0) %”. The “Asymptomatic blood pressure reduction, patients, no.” value ([2]; 60-mg Compound A (n = 42)) was 13, the “Symptomatic blood pressure reduction, patients (%)” value ([2]; 60-mg Compound A (n = 42)) was “(14.3) %” and the “Symptomatic blood pressure reduction, patients, no.” value ([2]; 60-mg Compound A (n = 42)) was 6. For the same compound, the “marked laboratory abnormalities (in words)” value ([2]; among treatment groups) was “No notable imbalances in marked laboratory abnormalities among treatment groups”.
